Reference: ChEMBL document CHEMBL1154825, “Schweinfurthins I and J from Macaranga schweinfurthii” (2010)

Experiments:
Assay type in all cases: functional
[1] = tested on: MOLT-4; assay: Growth inhibition of human MOLT4 cells
[2] = tested on: COLO 205; assay: Growth inhibition of human COLO205 cells
[3] = tested on: U-251; assay: Growth inhibition of human U251 cells
[4] = tested on: SK-MEL-5; assay: Growth inhibition of human SK-MEL-5 cells
[5] = tested on: SK-MEL-28; assay: Growth inhibition of human SK-MEL-28 cells
[6] = tested on: HCT-116; assay: Growth inhibition of human HCT116 cells
[7] = tested on: SNB-19; assay: Growth inhibition of human SNB19 cells
[8] = tested on: A549; assay: Growth inhibition of human A549 cells
[9] = tested on: RXF 393; assay: Growth inhibition of human […] cells
[10] = Growth inhibition of human NCI60 cells
[11] = tested on: SR; assay: Growth inhibition of human SR cells
[12] = tested on: UACC-62; assay: Growth inhibition of human UACC62 cells
[13] = tested on: MDA-MB-231; assay: Growth inhibition of human MDA-MB-231 cells
[14] = tested on: HCC 2998; assay: Growth inhibition of human HCC2998 cells
[15] = tested on: MDA-MB-468; assay: Growth inhibition of human MDA-MB-468 cells
[16] = tested on: OVCAR-3; assay: Growth inhibition of human OVCAR-3 cells
[17] = tested on: SF-295; assay: Growth inhibition of human SF295 cells
[18] = tested on: M14; assay: Growth inhibition of human M14 cells
[19] = tested on: OVCAR-5; assay: Growth inhibition of human OVCAR5 cells
[20] = tested on: OVCAR-8; assay: Growth inhibition of human OVCAR8 cells
[21] = tested on: SK-MEL-2; assay: Growth inhibition of human SK-MEL-2 cells
[22] = tested on: HCT-15; assay: Growth inhibition of human HCT15 cells
[23] = tested on: NCI-H322M; assay: Growth inhibition of human NCI-H322M cells
[24] = tested on: CCRF-CEM; assay: Growth inhibition of human CCRF-CEM cells
[25] = tested on: 786-0; assay: Growth inhibition of human 786-0 cells
[26] = tested on: NCI-H23; assay: Growth inhibition of human NCI-H23 cells
[27] = tested on: OVCAR-4; assay: Growth inhibition of human OVCAR4 cells
[28] = tested on: UO-31; assay: Growth inhibition of human UO31 cells
[29] = tested on: K562; assay: Growth inhibition of human K562 cells
[30] = tested on: MCF7; assay: Growth inhibition of human MCF7 cells
[31] = tested on: NCI-H226; assay: Growth inhibition of human NCI-H226 cells
[32] = tested on: BT-549; assay: Growth inhibition of human BT549 cells
[33] = tested on: SK-OV-3; assay: Growth inhibition of human SKOV3 cells
[34] = tested on: Malme-3M; assay: Growth inhibition of human MALME-3M cells
[35] = tested on: HOP-62; assay: Growth inhibition of human HOP62 cells
[36] = tested on: DU-145; assay: Growth inhibition of human DU145 cells
[37] = tested on: KM12; assay: Growth inhibition of human KM12 cells
[38] = tested on: EKVX; assay: Growth inhibition of human EKVX cells
[39] = tested on: IGROV-1; assay: Growth inhibition of human IGROV1 cells
[40] = tested on: ACHN; assay: Growth inhibition of human ACHN cells
[41] = tested on: UACC-257; assay: Growth inhibition of human UACC257 cells
[42] = Growth inhibition of human Hs 578T cells
[43] = tested on: PC-3; assay: Growth inhibition of human PC3 cells
[44] = tested on: SF-268; assay: Growth inhibition of human SF268 cells
[45] = read-out: pLC50 (the source's name) (converted)

CC(C)=CCC/C(C)=C/CC/C(C)=C/Cc1c(O)cc(/C=C/c2ccc(O)cc2)cc1O [SCHWEINFURTHIN J]
GI50 [1]: 4.07 µM | LC50 [1]: > 100 µM | TGI ([1]; read-out: pTGI (converted)): 25.1 µM | GI50 [2]: 6.46 µM | LC50 [2]: 44.7 µM | TGI ([2]; read-out: pTGI (converted)): 18.6 µM | GI50 [3]: 2.75 µM | LC50 [3]: 30.9 µM | TGI ([3]; read-out: pTGI (converted)): 8.32 µM | GI50 [4]: 1.7 µM | CC50 [4, 45]: 5.75 µM | TGI ([4]; read-out: pTGI (converted)): 3.16 µM | GI50 [5]: 2.45 µM | CC50 [5, 45]: 23.4 µM | TGI ([5]; read-out: pTGI (converted)): 6.46 µM | GI50 [6]: 1.86 µM | CC50 [6, 45]: 7.94 µM | TGI ([6]; read-out: pTGI (converted)): 3.89 µM | GI50 [7]: 6.76 µM | LC50 [7]: 46.8 µM | TGI ([7]; read-out: pTGI (converted)): 19.5 µM | GI50 [8]: 3.31 µM | LC50 [8]: 42.7 µM | TGI ([8]; read-out: pTGI (converted)): 12.9 µM | GI50 [9]: 1.86 µM | CC50 [9, 45]: 6.61 µM | TGI ([9]; read-out: pTGI (converted)): 3.55 µM | GI50 [10]: 2.8 µM | GI50 [11]: 4.27 µM | LC50 [11]: > 100 µM | TGI ([11]; read-out: pTGI (converted)): 29.5 µM | GI50 [12]: 2.24 µM | CC50 [12, 45]: 15.8 µM | TGI ([12]; read-out: pTGI (converted)): 5.25 µM | GI50 [13]: 3.47 µM | LC50 [13]: 44.7 µM | TGI ([13]; read-out: pTGI (converted)): 11.7 µM | GI50 [14]: 2.69 µM | LC50 [14]: 21.4 µM | TGI ([14]; read-out: pTGI (converted)): 6.31 µM | GI50 [15]: 2.69 µM | CC50 [15, 45]: 36.3 µM | TGI ([15]; read-out: pTGI (converted)): 8.91 µM | GI50 [16]: 2 µM | LC50 (concentration killing 50% of cells) [16]: 14.1 µM | TGI ([16]; read-out: pTGI (converted)): 4.79 µM | GI50 [17]: 2.29 µM | LC50 [17]: 45.7 µM | TGI ([17]; read-out: pTGI (converted)): 11.5 µM | GI50 [18]: 2 µM | CC50 [18, 45]: 8.51 µM | TGI ([18]; read-out: pTGI (converted)): 4.17 µM | GI50 [19]: 4.47 µM | LC50 [19]: 44.7 µM | TGI ([19]; read-out: pTGI (converted)): 15.8 µM | GI50 [20]: 3.31 µM | LC50 [20]: 43.7 µM | TGI ([20]; read-out: pTGI (converted)): 11.5 µM | GI50 [21]: 2.75 µM | LC50 [21]: 31.6 µM | TGI ([21]; read-out: pTGI (converted)): 8.13 µM | GI50 [22]: 3.24 µM | LC50 (50% lethal concentration) [22]: 64.6 µM | TGI ([22]; read-out: pTGI (converted)): 16.6 µM | GI50 [23]: 6.17 µM | LC50 [23]: 47.9 µM | TGI ([23]; read-out: pTGI (converted)): 20 µM | GI50 [24]: 0.537 µM | LC50 [24]: > 100 µM | TGI ([24]; read-out: pTGI (converted)): 17 µM | GI50 [25]: 1.95 µM | CC50 [25, 45]: 9.77 µM | TGI ([25]; read-out: pTGI (converted)): 4.37 µM | GI50 [26]: 3.02 µM | LC50 [26]: 36.3 µM | TGI ([26]; read-out: pTGI (converted)): 8.51 µM | GI50 [27]: 3.89 µM | CC50 [27, 45]: 39.8 µM | TGI ([27]; read-out: pTGI (converted)): 14.8 µM | GI50 [28]: 1.32 µM | LC50 (concentration killing 50% of cells) [28]: 34.7 µM | TGI ([28]; read-out: pTGI (converted)): 10.2 µM | GI50 [29]: 3.72 µM | LC50 [29]: > 100 µM | TGI ([29]; read-out: pTGI (converted)): 22.9 µM | GI50 [30]: 2.57 µM | LC50 [30]: 43.7 µM | TGI ([30]; read-out: pTGI (converted)): 11.2 µM | GI50 [31]: 3.63 µM | LC50 [31]: 55 µM | TGI ([31]; read-out: pTGI (converted)): 14.8 µM | GI50 [32]: 2.57 µM | LC50 [32]: 30.9 µM | TGI ([32]; read-out: pTGI (converted)): 8.91 µM | GI50 [33]: 7.24 µM | CC50 [33, 45]: 44.7 µM | TGI ([33]; read-out: pTGI (converted)): 19.5 µM | GI50 [34]: 2.95 µM | LC50 [34]: 39.8 µM | TGI ([34]; read-out: pTGI (converted)): 8.91 µM | GI50 [35]: 2.04 µM | LC50 [35]: 7.41 µM | TGI ([35]; read-out: pTGI (converted)): 3.89 µM | GI50 [36]: 3.72 µM | LC50 [36]: 35.5 µM | TGI ([36]; read-out: pTGI (converted)): 12.9 µM | GI50 [37]: 2.75 µM | LC50 [37]: 31.6 µM | TGI ([37]; read-out: pTGI (converted)): 8.91 µM | GI50 [38]: 4.27 µM | LC50 [38]: 46.8 µM | TGI ([38]; read-out: pTGI (converted)): 16.6 µM | GI50 [39]: 2.34 µM | CC50 [39, 45]: 38.9 µM | TGI ([39]; read-out: pTGI (converted)): 11.2 µM | GI50 [40]: 3.8 µM | CC50 [40, 45]: 38.9 µM | TGI ([40]; read-out: pTGI (converted)): 13.5 µM | GI50 [41]: 4.68 µM | LC50 [41]: 41.7 µM | TGI ([41]; read-out: pTGI (converted)): 16.2 µM | GI50 [42]: 2.88 µM | LC50 [42]: 89.1 µM | TGI ([42]; read-out: pTGI (converted)): 12.3 µM | GI50 [43]: 3.02 µM | LC50 [43]: 42.7 µM | TGI ([43]; read-out: pTGI (converted)): 13.5 µM | GI50 [44]: 2.63 µM | LC50 [44]: 38 µM | TGI ([44]; read-out: pTGI (converted)): 11.5 µM
